Assays:
tumors = conditions: prior art statement; cited from earlier work
[1] = system: V79 Chinese hamster cells; assay: V79 Chinese hamster cell survival assay after neutron irradiation; assay type: cell-based; conditions: 30 ppm, incubated twelve hours; neutron beam 2.8×10^11 n/cm^2 min; colony growth 5-6 days
Description: In vitro activity for neutron capture therapy is determined, e.g., by measuring the effect of low-level, thermal neutron irradiation on the V79 […] cell line in culture, and measuring resultant cytotoxicity, for example as described by Fairchild et al., Cancer Research 50. After the V79 cells are exposed to a neutron capture agent, they are irradiated with a neutron beam at a fluence rate of 2.8×10^11 n/cm^2 min. The cells are plated for undisturbed colony growth for 5-6 days, after which the remaining cell population is assessed.
The effect of neutron irradiation on V79 Chinese hamster cells incubated for twelve hours with ^157Gd-Tex is determined by a modification of the procedure originally described by Fairchild et al., Cancer Research 50 (1990). Three sets of sample plates of V79 cells are prepared. The first set (control cells) are suspended with 30 ppm ^157Gd-Tex in growth medium. The second set (washed cells) are suspended with 30 ppm ^157Gd-Tex in growth medium, then washed 3 times with PBS, trypsinized and harvested with gadolinium from reagents prior to suspension. The third set (ambient cells) are suspended in a 30 ppm ^157Gd containing medium.
All of the cells are irradiated within 1-2 hours following suspension in growth medium at a population density of 3.0×10^5 cells/ml. The neutron beam fluence rate at the center of the sample is 2.8×10^11 n/cm^2 min. […]

Glioma 261 tumor = assay: Neutron capture activity in mice with intracerebral Glioma 261 tumor; assay type: in vivo; conditions: group A: Gd-Tex intravenous plus 1.2×10^12 neutrons/cm^2 (20 Gy), versus groups B-E; female C57BL/6 mice, up to 100 days
Description: In vivo activity for neutron capture therapy is determined, e.g., by post-mortem histological examination of brain tumor tissue by hematoxylin and eosin, as described in Saris et al., Cancer Research, vol. 52 (1992). The antitumor effects of neutron capture therapy are evaluated by implanting Glioma 261 tumor fragments into the brain of a mouse. Approximately 3 hours after administration of a neutron capture agent to be tested, the head is irradiated a with 1.2×10^12 neutron beam (resulting in a planned dose of […]). After 100 days the mouse is sacrificed and the tumorous and non-tumorous sections of the brain are stained with hematoxylin and eosin for histologic examination. The tumor bearing and control brain tissue sections are compared.
This procedure is a modification of a procedure initially described by Saris et al., Cancer Research, vol. 52 (1992). Glioma 261 tumor fragments are injected approximately 2 mm deep to the dura of the brain in 42 female C57BL/6 mice. The mice are randomized into 5 groups. The mice in group A receive […] mg/kg Gd-Tex and 1.2×10^12 neutrons/cm^2 resulting in 20 Gy. Group B mice receive 1.2×10^12 neutrons/cm^2 resulting in 20 Gy. The mice in group C receive […] mg/kg Gd-Tex and 10 Gy of photon irradiation. Group D receives […] mg/kg of Gd-Tex alone. Group E receives no treatment. […]

[2] = prior art statement; cited from earlier work

Compound	selectivity for tumors / accumulation in tumor tissue (tumors)	further results
O=C([O-])CN1CCN(CC(=O)[O-])CCN(CC(=O)O)CCN(CC(=O)[O-])CC1.[Gd+3] [Gd-DOTA, gadoteric acid]	not found to be tumor selective	
O=C([O-])CN(CCN(CC(=O)[O-])CC(=O)O)CCN(CC(=O)[O-])CC(=O)O.[Gd+3] [Gd-DTPA, gadolinium diethylenetriamine-pentaacetic acid]	not found to be tumor selective	
N[C@@H](Cc1ccc(B(O)O)cc1)C(=O)O [p-boron-phenylalanine]	limited selectivity for tumors	tumor/blood concentration ratios (tumors): poor tumor/blood concentration ratios
^157Gd complex of 4,5-diethyl-10,23-dimethyl-9,24-bis(3-hydroxy propyl)-16,17-bis[2-[2-(2-methoxyethoxy)ethoxy]ethoxy]pentaazapentacyclo[20.2.1.1^3,6.1^8,11.0^14,19]heptacos a-1,3,5,7,9,11(27),12,14,16,18,20,22(25),23-tridecaene bis acetate [^157Gd-Tex]		survival of the control cells compared with the washed or ambient cells [1]: significantly higher
bis(acetato-O)[9,10-diethyl-20,21-bis[2-[2-(2-methoxyethoxy)ethoxy]ethoxy]-4,15-dimethyl-8,11-imino-3,6:16,13-dinitrilo-1,18-benzodiazacycloeicosine-5,14-dipropanolato-N1,N18,N23,N24,N25]gadolinium [Gd-Tex]		survival rate (Glioma 261 tumor): greater survival rate than any of the other groups
tetrakiscarborane carboxylate ester of 2,4-(a,b-dihydroxyethyl)deuteroporphyrin [BOPP]	poor selectivity for tumors	phototoxicity [2]: phototoxic
